{
  "source": "patent US20050165081A1",
  "about": "“Use of anastrozole for the treatment of post-menopausal women having early breast cancer” (priority 2001, published 2005)",
  "key": {"[1]": {"format": "in vivo", "method": "(§1) The trial was designed to compare tamoxifen (20 mg once daily [od]) and anastrozole (1 mg od) and to compare tamoxifen (20 mg od) and the combination of anastrozole (1 mg od) plus tamoxifen (20 mg od) as adjuvant treatment in terms of: • a) time to recurrence of breast cancer (defined as the earliest of local or distant recurrence, new primary breast cancer, or death); and • b) safety and side effects. Secondary objectives of this trial were to compare (i) tamoxifen and anastrozole and (ii) to compare tamoxifen and the combination of anastrozole plus tamoxifen as adjuvant treatment in terms of: • a) time to distant recurrence; • b) survival; and • c) incidence of new breast primaries.\n(§2) Specifically, the trial was designed as a randomised, double-blind, multicentre trial to compare the efficacy and safety of tamoxifen alone, anastrozole alone and anastrozole in combination with tamoxifen as adjuvant treatment for breast cancer in post-menopausal women.\nAt the major analysis, the incidence rates of the following pre-defined adverse events was formally compared between treatment groups defined by treatment received: hot flushes, nausea and vomiting, asthenia, mood disturbances, musculo-skeletal disorders, vaginal bleeding, vaginal discharge, endometrial cancer, fractures, cataract, venous thromboembolic events, and ischaemic cardiovascular disease. The primary analysis includes all patients who received trial treatment, analysed according to treatment received. A secondary subgroup analysis was also be undertaken, analysed according to trial treatment received, in patients with oestrogen receptor (ER) positive and/or progesterone receptor (PR) positive tumours, patients with ER negative and PR negative tumours, and all other patients remaining safety data was summarised and presented by treatment received."}, "early breast cancer": {"tested_on": "early breast cancer", "assay": "Randomised, double-blind, multicentre adjuvant trial: time to disease recurrence / disease-free survival and new breast primaries", "format": "in vivo, post-menopausal women", "conditions": "for First event / First events: Contralateral (DCIS) / First events: Contralateral (invasive) / First events: Death - breast cancer / First events: Death - other reason / First events: Distant / First events: Locoregional: number of first events, ITT population", "method": "as §1, §2\nPatients were assessed at entry, 3 months, 6 months and thereafter at 6-month intervals. Patients were recruited from 381 centres and in 21 countries. The patients were recruited between July 1996 and March 2000.\nThe double blind trial used both active and placebo anastrozole and tamoxifen tables, in order to maintain blindness to trial therapy. Anastrozole 1 mg and matching anastrozole placebo were supplied as white, film-coated tablets. Tamoxifen 20 mg active tablets and matching tamoxifen placebo were supplied as white, round, biconvex tablets. Patients were randomised to receive one of three oral therapy regimens. The daily dose is one tablet of anastrozole (1 mg active or placebo) plus one tablet of tamoxifen (20 mg active or placebo). Patients were instructed to take their daily dose at approximately the same time each day. At entry to the trial patients received either a 13-week supply or a 26-week supply of trial material. Patients who received a 13-week supply received a further 13-week supply at the first follow-up visit (3-months). From the 6-month visit onwards, patients received a 26-week supply. In order to assess compliance, patients were asked to return all unused tablets at each visit.\nTherapy was started as soon as possible after randomisation, but not more than 8 weeks after completion of surgery and chemotherapy. […] Primary chemotherapy must have started within 8 weeks of completing primary surgery. Patients who stop primary chemotherapy before completion of the planned number of cycles may also be randomised. […] These drugs include the following:— • cytotoxic chemotherapy; • oral adminstration of ketoconazole (antifungal) or related compounds (i.e. topical applications are acceptable); • other hormonal treatments for breast cancer.\nPatients were reviewed for recurrence of breast cancer at all follow-up visits, using the following criteria, which are based on British Breast Group recommendations:—\nNew breast primaries (either contralateral or ipsilateral) were regarded as disease recurrence events in the statistical analyses of time to recurrence.\nThe primary statistical endpoint of the trial was time to disease recurrence (locoregional or distant recurrence, new primary breast cancer or death from any cause) and safety/tolerability. The secondary statistical endpoints were time to distant recurrence, time to death, the incidence of new breast primaries and the incidence of pre-defined adverse events. In summary, two treatment comparisons were made: (1) anastrozole alone compared to tamoxifen alone and (2) tamoxifen alone compared to anastrozole and tamoxifen in combination."}, "breast cancer": {"tested_on": "breast cancer", "conditions": "adjuvant tamoxifen for two years or more, no concomitant chemotherapy; cited from earlier work"}, "advanced breast cancer": {"tested_on": "advanced breast cancer", "conditions": "advanced disease, cited from earlier work"}},
  "note": "“Also recorded” adds a separate entry of the source. Structures can show the parent of a compound that is named as a salt. Where two headings read alike, the source gives them in different places.",
  "data": [
    {"smiles": "CC(C)(C#N)c1cc(Cn2cncn2)cc(C(C)(C)C#N)c1", "note": "[anastrozole]", "values": [
      {"measurement": "overall tolerability in the adjuvant programme", "setting": "[1]; FIG. 4, pre-defined adverse events", "value": "well tolerated"},
      {"measurement": "tolerability versus tamoxifen", "setting": "[1]; endometrial cancer, vaginal bleeding, vaginal discharge, ischemic cerebrovascular events, venous thromboembolic events, hot flushes, weight gain", "value": "significantly better tolerated"},
      {"measurement": "rate of disease recurrence, comparison in words", "setting": "early breast cancer; FIG. 2, receptor positive population", "value": "superior to tamoxifen"},
      {"measurement": "HR, disease-free survival", "setting": "early breast cancer; ITT (overall) population, versus tamoxifen, HR <1.00 favours anastrozole or the combination", "value": 0.83},
      {"measurement": "reduction in recurrence rate", "setting": "early breast cancer; hormone receptor positive (ER and/or PR positive) patients, versus tamoxifen", "value": 22, "unit": "%"},
      {"measurement": "reduction in the rate of recurrence events", "setting": "early breast cancer; main analysis, all patients, versus tamoxifen, locoregional, distant, contralateral events and deaths", "value": 17, "unit": "%"},
      {"measurement": "First event", "setting": "early breast cancer", "value": 317},
      {"measurement": "First events: Contralateral (DCIS)", "setting": "early breast cancer", "value": 5},
      {"measurement": "First events: Contralateral (invasive)", "setting": "early breast cancer", "value": 9},
      {"measurement": "First events: Death - breast cancer", "setting": "early breast cancer", "value": 2},
      {"measurement": "First events: Death - other reason", "setting": "early breast cancer", "value": 78},
      {"measurement": "First events: Distant", "setting": "early breast cancer", "value": 156},
      {"measurement": "First events: Locoregional", "setting": "early breast cancer", "value": 67},
      {"measurement": "incidence of new primary (contralateral) breast cancer, comparison in words", "setting": "early breast cancer; overall population", "value": "significantly more effective than tamoxifen"},
      {"measurement": "disease-free survival / rate of disease recurrence, comparison in words", "setting": "early breast cancer; overall population, adjuvant treatment of early breast cancer", "value": "significantly more effective than tamoxifen; also recorded: superior to tamoxifen"},
      {"measurement": "incidence of new primary (contralateral) breast cancer, comparison in words", "setting": "early breast cancer; overall population, listed as anastrazole", "value": "superiority"},
      {"measurement": "HR, incidence of new (contralateral) breast primaries", "setting": "early breast cancer; overall population, versus tamoxifen", "value": 0.42},
      {"measurement": "OR, incidence of contralateral breast cancer", "setting": "early breast cancer; overall population, versus tamoxifen, 1.00 would show equivalence", "value": 0.42},
      {"measurement": "HR, disease-free survival", "setting": "early breast cancer; receptor positive population, versus tamoxifen", "value": 0.78}
    ]},
    {"smiles": "CC/C(=C(\\c1ccccc1)c1ccc(OCCN(C)C)cc1)c1ccccc1", "note": "[tamoxifen, tamoxifen citrate]", "values": [
      {"measurement": "annual reduction in mortality", "setting": "breast cancer", "value": 24, "unit": "%"},
      {"measurement": "annual reduction in recurrence", "setting": "breast cancer", "value": 39, "unit": "%"},
      {"measurement": "tolerability versus anastrozole", "setting": "[1]; musculoskeletal disorders and fractures", "value": "better tolerated"},
      {"measurement": "patients who will respond", "setting": "advanced breast cancer; ER and PR negative patients", "value": "< 10", "unit": "%"},
      {"measurement": "patients who will respond", "setting": "advanced breast cancer; ER and PR positive patients", "value": "approximately 70%"},
      {"measurement": "First event", "setting": "early breast cancer", "value": 379},
      {"measurement": "First events: Contralateral (DCIS)", "setting": "early breast cancer", "value": 3},
      {"measurement": "First events: Contralateral (invasive)", "setting": "early breast cancer", "value": 30},
      {"measurement": "First events: Death - breast cancer", "setting": "early breast cancer", "value": 1},
      {"measurement": "First events: Death - other reason", "setting": "early breast cancer", "value": 81},
      {"measurement": "First events: Distant", "setting": "early breast cancer", "value": 181},
      {"measurement": "First events: Locoregional", "setting": "early breast cancer", "value": 83}
    ]}
  ]
}
